Test results from paper PMC6803848, “Exploring New Structural Features of the 18β-Glycyrrhetinic Acid Scaffold for the Inhibition of Anaplastic Lymphoma Kinase” (Molecules, 2019).

What was measured:
HT29 = test: MTT antiproliferative assay, HT29 cells; type: cell-based; settings: Homo sapiens, HT-29, 48 h, MTT, read-out: Antiproliferative activity (growth inhibition, %); for inhibition at 2 µg/mL: HT29, 2 μg/mL; for inhibition at 20 µg/mL: HT29, 20 μg/mL
Protocol: (§1) All the cells were seeded in 96-well plates and incubated with 5% CO2 at 37 °C for 24 h. Next, the compounds and the reference were dissolved into the culture medium. The final concentration of DMSO in the medium was less than 0.5%. After the cells were treated with compounds for 48 h, the supernatant was removed and 5 mg/mL of a fresh prepared solution of MTT was added to each well and incubated with the cells at 37 °C for another 4 h. The medium was removed, and 100 μL of testing solution was added to each well. After an overnight incubation with 5% CO2 at 37 °C, the absorbance was measured at 490/630 nm by the microplate reader. The IC50 was calculated using GraphPad Prism version 6.0 software (San Diego, CA, USA) from the non-linear curve.

A549 = test: MTT antiproliferative assay, A549 cells; type: cell-based; settings: Homo sapiens, 48 h, MTT, read-out: Antiproliferative activity (growth inhibition, %); for inhibition at 2 µg/mL: A549, 2 μg/mL; for inhibition at 20 µg/mL: A549, 20 μg/mL
Protocol: as §1

SMILES: CC1(C)C2CC[C@]3(C)[C@H](C(=O)C=C4[C@@H]5C[C@@](C)(C(=O)O)CC[C@]5(C)CC[C@]43C)[C@@]2(C)CC[C@@H]1OC(=O)Nc1ccc(Cl)cc1 (stereo partly drawn) [3d, 3β-(((4-chlorophenyl)carbamoyl)oxy)-11-oxo-olean-12-en-30-oic acid]
- inhibition at 2 µg/mL (HT29): 13.7%
- inhibition at 20 µg/mL (HT29): 56.2%
- melting point: 235.1 to 236.7 °C
- inhibition at 2 µg/mL (A549): 9.93%
- inhibition at 20 µg/mL (A549): 55.4%

SMILES: Cc1ccc(NC(=O)O[C@H]2CC[C@@]3(C)C(CC[C@]4(C)[C@@H]3C(=O)C=C3[C@@H]5C[C@@](C)(C(=O)O)CC[C@]5(C)CC[C@]34C)C2(C)C)cc1Cl (stereo partly drawn) [3f, 3β-(((3-chloro-4-methylphenyl)carbamoyl)oxy)-11-oxo-olean-12-en-30-oic acid]
- inhibition at 2 µg/mL (HT29): 15.6%
- inhibition at 20 µg/mL (HT29): 89.2%
- melting point: 270.7 to 271.6 °C
- inhibition at 2 µg/mL (A549): 11.4%
- inhibition at 20 µg/mL (A549): 80.2%

SMILES: CC1(C)C2CC[C@]3(C)[C@H](C(=O)C=C4[C@@H]5C[C@@](C)(C(=O)O)CC[C@]5(C)CC[C@]43C)[C@@]2(C)CC[C@@H]1OC(=O)Nc1ccc(Br)cc1 (stereo partly drawn) [3g, 3β-(((4-bromophenyl)carbamoyl)oxy)-11-oxo-olean-12-en-30-oic acid]
- inhibition at 2 µg/mL (HT29): 18.6%
- inhibition at 20 µg/mL (HT29): 76.5%
- melting point: 263 to 265 °C
- inhibition at 2 µg/mL (A549): 9.72%
- inhibition at 20 µg/mL (A549): 63.4%

SMILES: CC1(C)C2CC[C@]3(C)[C@H](C(=O)C=C4[C@@H]5C[C@@](C)(C(=O)O)CC[C@]5(C)CC[C@]43C)[C@@]2(C)CC[C@@H]1OC(=O)Nc1ccc(F)cc1 (stereo partly drawn) [3h, 3β-(((4-fluorophenyl)carbamoyl)oxy)-11-oxo-olean-12-en-30-oic acid]
- inhibition at 2 µg/mL (HT29): 11.8%
- inhibition at 20 µg/mL (HT29): 58.6%
- melting point: 267.9 to 268.9 °C
- inhibition at 2 µg/mL (A549): 34.4%
- inhibition at 20 µg/mL (A549): 56.7%

SMILES: CC1(C)C2CC[C@]3(C)[C@H](C(=O)C=C4[C@@H]5C[C@@](C)(C(=O)O)CC[C@]5(C)CC[C@]43C)[C@@]2(C)CC[C@@H]1OC(=O)Nc1ccc(C(F)(F)F)cc1 (stereo partly drawn) [3i, 3β-(((4-(trifluoromethyl)phenyl)carbamoyl)oxy)-11-oxo-olean-12-en-30-oic acid]
- inhibition at 2 µg/mL (HT29): 19.4%
- inhibition at 20 µg/mL (HT29): 90.1%
- melting point: 242.1 to 242.9 °C
- inhibition at 2 µg/mL (A549): 15.9%
- inhibition at 20 µg/mL (A549): 87.5%

SMILES: COc1cccc(NC(=O)O[C@H]2CC[C@@]3(C)C(CC[C@]4(C)[C@@H]3C(=O)C=C3[C@@H]5C[C@@](C)(C(=O)O)CC[C@]5(C)CC[C@]34C)C2(C)C)c1 (stereo partly drawn) [3l, 3β-(((3-methoxyphenyl)carbamoyl)oxy)-11-oxo-olean-12-en-30-oic acid]
- inhibition at 2 µg/mL (HT29): 6.06%
- inhibition at 20 µg/mL (HT29): 47.4%
- melting point: 259.5 to 261.1 °C
- inhibition at 2 µg/mL (A549): 9.74%
- inhibition at 20 µg/mL (A549): 53.7%

SMILES: COc1ccc(NC(=O)O[C@H]2CC[C@@]3(C)C(CC[C@]4(C)[C@@H]3C(=O)C=C3[C@@H]5C[C@@](C)(C(=O)O)CC[C@]5(C)CC[C@]34C)C2(C)C)cc1 (stereo partly drawn) [3m, 3β-(((4-methoxyphenyl)carbamoyl)oxy)-11-oxo-olean-12-en-30-oic acid]
- inhibition at 2 µg/mL (HT29): 12.8%
- inhibition at 20 µg/mL (HT29): 32.3%
- melting point: 264 to 264.8 °C
- inhibition at 2 µg/mL (A549): 11.7%
- inhibition at 20 µg/mL (A549): 47.5%

SMILES: CC1(C)C2CC[C@]3(C)[C@H](C(=O)C=C4[C@@H]5C[C@@](C)(C(=O)N6CCOCC6)CC[C@]5(C)CC[C@]43C)[C@@]2(C)CC[C@@H]1OC(=O)Nc1ccc(Cl)c(Cl)c1 (stereo partly drawn) [4a, 3β-(((3,4-dichlorophenyl)carbamoyl)oxy)-30-morpholino-olean-12-ene-11,30-dione]
- inhibition at 2 µg/mL (HT29): 8.88%
- inhibition at 20 µg/mL (HT29): 18.3%
- melting point: 292.5 to 293 °C
- inhibition at 2 µg/mL (A549): 0%
- inhibition at 20 µg/mL (A549): 0%

SMILES: CC1(C)C2CC[C@]3(C)[C@H](C(=O)C=C4[C@@H]5C[C@@](C)(C(=O)N6CCOCC6)CC[C@]5(C)CC[C@]43C)[C@@]2(C)CC[C@@H]1OC(=O)Nc1ccc(Cl)c(C(F)(F)F)c1 (stereo partly drawn) [4b, 3β-(((4-chloro-3-(trifluoromethyl)phenyl)carbamoyl)oxy)-30-morpholino-olean-12-ene-11,30-dione]
- inhibition at 2 µg/mL (HT29): 14.4%
- inhibition at 20 µg/mL (HT29): 32.8%
- melting point: 209.5 to 211.1 °C
- inhibition at 2 µg/mL (A549): 0%
- inhibition at 20 µg/mL (A549): 0%

SMILES: CC1(C)C2CC[C@]3(C)[C@H](C(=O)C=C4[C@@H]5C[C@@](C)(C(=O)N6CCOCC6)CC[C@]5(C)CC[C@]43C)[C@@]2(C)CC[C@@H]1OC(=O)Nc1cc(Cl)cc(Cl)c1 (stereo partly drawn) [4c, 3β-(((3,5-dichlorophenyl)carbamoyl)oxy)-30-morpholino-olean-12-ene-11,30-dione]
- inhibition at 2 µg/mL (HT29): 7.41%
- inhibition at 20 µg/mL (HT29): 2.76%
- melting point: 278.2 to 280.3 °C
- inhibition at 2 µg/mL (A549): 0%
- inhibition at 20 µg/mL (A549): 0%

SMILES: CC1(C(=O)N2CCOCC2)CCC2(C)CCC3(C)C(=CC(=O)C4C5(C)CCC(OC(=O)Nc6ccc(Cl)cc6)C(C)(C)C5CCC43C)C2C1 (stereo not drawn) [4d, 3β-(((4-chlorophenyl)carbamoyl)oxy)-30-morpholino-olean-12-ene-11,30-dione]
- inhibition at 2 µg/mL (HT29): 16.3%
- inhibition at 20 µg/mL (HT29): 53.7%
- melting point: 298.4 to 299.7 °C
- inhibition at 2 µg/mL (A549): 0%
- inhibition at 20 µg/mL (A549): 54.4%

SMILES: CC1(C)C2CC[C@]3(C)[C@H](C(=O)C=C4[C@@H]5C[C@@](C)(C(=O)N6CCOCC6)CC[C@]5(C)CC[C@]43C)[C@@]2(C)CC[C@@H]1OC(=O)Nc1cccc(Cl)c1 (stereo partly drawn) [4e, 3β-(((3-chlorophenyl)carbamoyl)oxy)-30-morpholino-olean-12-ene-11,30-dione]
- inhibition at 2 µg/mL (HT29): 7.22%
- inhibition at 20 µg/mL (HT29): 13.2%
- melting point: 291 to 292.5 °C
- inhibition at 2 µg/mL (A549): 0%
- inhibition at 20 µg/mL (A549): 0%

SMILES: Cc1ccc(NC(=O)O[C@H]2CC[C@@]3(C)C(CC[C@]4(C)[C@@H]3C(=O)C=C3[C@@H]5C[C@@](C)(C(=O)N6CCOCC6)CC[C@]5(C)CC[C@]34C)C2(C)C)cc1Cl (stereo partly drawn) [4f, 3β-(((3-chloro-4-methylphenyl)carbamoyl)oxy)-30-morpholino-olean-12-ene-11,30-dione]
- inhibition at 2 µg/mL (HT29): 7.1%
- inhibition at 20 µg/mL (HT29): 18.4%
- melting point: 293.7 to 295.6 °C
- inhibition at 2 µg/mL (A549): 0%
- inhibition at 20 µg/mL (A549): 0%

SMILES: CC1(C(=O)N2CCOCC2)CCC2(C)CCC3(C)C(=CC(=O)C4C5(C)CCC(OC(=O)Nc6ccc(Br)cc6)C(C)(C)C5CCC43C)C2C1 (stereo not drawn) [4g, 3β-(((4-bromophenyl)carbamoyl)oxy)-30-morpholino-olean-12-ene-11,30-dione]
- inhibition at 2 µg/mL (HT29): 14.3%
- inhibition at 20 µg/mL (HT29): 27.1%
- inhibition at 2 µg/mL (A549): 0%
- inhibition at 20 µg/mL (A549): 1.02%

SMILES: CC1(C(=O)N2CCOCC2)CCC2(C)CCC3(C)C(=CC(=O)C4C5(C)CCC(OC(=O)Nc6ccc(F)cc6)C(C)(C)C5CCC43C)C2C1 (stereo not drawn) [4h, 3β-(((4-fluorophenyl)carbamoyl)oxy)-30-morpholino-olean-12-ene-11,30-dione]
- inhibition at 2 µg/mL (HT29): 14.8%
- inhibition at 20 µg/mL (HT29): 30.4%
- melting point: 305.1 to 311.4 °C
- inhibition at 2 µg/mL (A549): 0%
- inhibition at 20 µg/mL (A549): 8.54%

SMILES: CC1(C)C2CC[C@]3(C)[C@H](C(=O)C=C4[C@@H]5C[C@@](C)(C(=O)N6CCOCC6)CC[C@]5(C)CC[C@]43C)[C@@]2(C)CC[C@@H]1OC(=O)Nc1ccc(C(F)(F)F)cc1 (stereo partly drawn) [4i, 3β-(((4-(trifluoromethyl)phenyl)carbamoyl)oxy)-30-morpholino-olean-12-ene-11,30-dione]
- inhibition at 2 µg/mL (HT29): 13.7%
- inhibition at 20 µg/mL (HT29): 27.3%
- melting point: 296.4 to 298 °C
- inhibition at 2 µg/mL (A549): 0%
- inhibition at 20 µg/mL (A549): 4.46%

SMILES: CC1(C(=O)N2CCOCC2)CCC2(C)CCC3(C)C(=CC(=O)C4C5(C)CCC(OC(=O)Nc6cccc(C(F)(F)F)c6)C(C)(C)C5CCC43C)C2C1 (stereo not drawn) [4j, 3β-(((3-(trifluoromethyl)phenyl)carbamoyl)oxy)-30-morpholino-olean-12-ene-11,30-dione]
- inhibition at 2 µg/mL (HT29): 20.3%
- inhibition at 20 µg/mL (HT29): 36.4%
- melting point: 295 to 296.7 °C
- inhibition at 2 µg/mL (A549): 0%
- inhibition at 20 µg/mL (A549): 0%

SMILES: CC1(C)C2CC[C@]3(C)[C@H](C(=O)C=C4[C@@H]5C[C@@](C)(C(=O)N6CCOCC6)CC[C@]5(C)CC[C@]43C)[C@@]2(C)CC[C@@H]1OC(=O)Nc1cc(C(F)(F)F)cc(C(F)(F)F)c1 (stereo partly drawn) [4k, 3β-(((3,5-bis(trifluoromethyl)phenyl)carbamoyl)oxy)-30-morpholino-olean-12-ene-11,30-dione]
- inhibition at 2 µg/mL (HT29): 13%
- inhibition at 20 µg/mL (HT29): 14.9%
- melting point: 313.4 to 314.7 °C
- inhibition at 2 µg/mL (A549): 4.47%
- inhibition at 20 µg/mL (A549): 0%

SMILES: COc1cccc(NC(=O)O[C@H]2CC[C@@]3(C)C(CC[C@]4(C)[C@@H]3C(=O)C=C3[C@@H]5C[C@@](C)(C(=O)N6CCOCC6)CC[C@]5(C)CC[C@]34C)C2(C)C)c1 (stereo partly drawn) [4l, 3β-(((3-methoxyphenyl)carbamoyl)oxy)-30-morpholino-olean-12-ene-11,30-dione]
- inhibition at 2 µg/mL (HT29): 13.6%
- inhibition at 20 µg/mL (HT29): 16.6%
- melting point: 305 to 306.8 °C
- inhibition at 2 µg/mL (A549): 0%
- inhibition at 20 µg/mL (A549): 0%

SMILES: COc1ccc(NC(=O)O[C@H]2CC[C@@]3(C)C(CC[C@]4(C)[C@@H]3C(=O)C=C3[C@@H]5C[C@@](C)(C(=O)N6CCOCC6)CC[C@]5(C)CC[C@]34C)C2(C)C)cc1 (stereo partly drawn) [4m, 3β-(((4-methoxyphenyl)carbamoyl)oxy)-30-morpholino-olean-12-ene-11,30-dione]
- inhibition at 2 µg/mL (HT29): 15.7%
- inhibition at 20 µg/mL (HT29): 23.2%
- melting point: 305 to 306.7 °C
- inhibition at 2 µg/mL (A549): 0%
- inhibition at 20 µg/mL (A549): 8.11%
